Patent publication US12606533B2, “3-phenylpropylamine derivative” (DAIICHI SANKYO COMPANY, LIMITED, priority 2023, dated 2026)

Key:
SF-1 = molecular target: T1, SF-1 (Homo sapiens, UniProt Q13285); assay: SF1 degradation induction in NCI-H295R SF-1-HiBiT cells (HiBiT DC50); format: cell-based; settings: 24 hr, concentration that induces 50% degradation of SF-1
T1 construct: NCI-H295R SF-1-HiBiT cells with HiBiT tag knocked in at the endogenous SF1 locus; host or cells: NCI-H295R SF-1-HiBiT (knock-in at endogenous locus)
Experimental: NCI-H295R SF-1-HiBiT cells were seeded in a 384-well plate (Thermo Fisher Scientific Inc.) at 1×10^4 cells/50 μL/well and cultured at 37° C. in a 5% CO2 incubator for 24 hr. DMSO solutions of each compound were serially diluted with DMSO using a D300e Digital Dispenser (TECAN), added to a 384-well plate, and cultured in a 5% CO2 incubator at 37° C. for 24 hr. […] After completion of culture, the medium was discarded, and Nano-Glo (registered trade mark) HiBiT Lytic Detection System (Promega, Cat. No. N3040) was added at 20 μL/well and stirred with a plate mixer. Luminescence signals were then detected using a multimode plate reader (EnVision Xcite, PerkinElmer). The SF-1 protein degradation rate was calculated from the amount of luminescence (C) in the compound-free group and the amount of luminescence (T) in the compound-added group, based on the following formula.
The obtained data was analyzed using GraphPad Prism9 (GraphPad Software Inc.) or Genedata Screener (Genedata AG) to calculate the concentration that induces 50% degradation of SF-1 (DC50 value).

NCI-H295R cells = assay: Proliferation inhibitory action on NCI-H295R (CellTiter-Glo, 7 days); format: cell-based, human; settings: Homo sapiens, NCI-H295R, 168 h
Experimental: DMSO solutions of each compound were serially diluted with DMSO using a D300e Digital Dispenser (TECAN), and added to a 384-well plate (Thermo Fisher Scientific Inc.). NCI-H295R cells were seeded in a 384-well plate at 2×10^3 cells/40 μL/well and cultured for 7 days in a 37° C., 5% CO2 incubator. […] On the first day of culture (day 0) and the seventh day of culture (day 7), 10 μL/well of CellTiter-Glo (registered trademark) 2.0 Assay (Promega) was added, and the luminescence signal was detected using a multimode plate reader (EnVision, PerkinElmer). The cell proliferation rate was calculated from the luminescence amount on the day of compound addition (CO), the luminescence amount of the compound-free group after 7 days of culture (C7), and the luminescence amount of the compound-added group (T7), based on the following formula.

Row | DC50 (SF-1) [nM] | GI50 (NCI-H295R cells) [nM] | Structure (SMILES)
1 | 6.2 | 48 | COc1ccc([C@]2(CCN(Cc3ccc(C4=CCC(CN5CCN(C(=O)c6ccc7c(n6)n(C)c(=O)n7C6CCC(=O)NC6=O)CC5)CC4)cc3)CC(C)(C)C(F)(F)F)CCOC(C)(C)C2)cc1 (stereo partly drawn) [BC6, 3-[5-({4-[(4′-{[{2-[(4R)-4-(4-Methoxyphenyl)-2,2-dimethyltetrahydro-2H-pyran-4-yl]ethyl}(3,3,3-trifluoro-2,2-dimethylpropyl)amino]methyl}-2,3,4,5-tetrahydro[biphenyl]-4-yl)methyl]piperazin-1-yl}carbonyl)-3-methyl-2-oxo-2,3-dihydro-1H-imidazo[4,5-b]pyridin-1-yl]piperidine-2,6-dione]
2 | 7.7 | 79 | COc1ccc([C@]2(CCN(Cc3ccc(C4=CCC(C(=O)N5CCC(N(C)c6ccc7c8c6CCCn8c(=O)n7C6CCC(=O)NC6=O)CC5)CC4)c(F)c3)CC(C)(C)C(F)(F)F)CCOC(C)(C)C2)cc1 (stereo partly drawn) [BH5, 3-{7-[{1-[(2′-Fluoro-4′-{[{2-[(4R)-4-(4-methoxyphenyl)-2,2-dimethyltetrahydro-2H-pyran-4-yl]ethyl}(3,3,3-trifluoro-2,2-dimethylpropyl)amino]methyl}-2,3,4,5-tetrahydro[biphenyl]-4-yl)carbonyl]piperidin-4-yl}(methyl)amino]-2-oxo-5,6-dihydro-4H-imidazo[4,5,1-ij]quinolin-1(2H)-yl}piperidine-2,6-dione]
3 | 8.7 | 147 | COc1ccc([C@]2(CCN(Cc3ccc(C4=CCC(CN5CCN(C(=O)c6ccc7c(c6)CN(C6CCC(=O)NC6=O)C7=O)CC5)CC4)cc3)CC(C)(C)C(F)(F)F)CCOC(C)(C)C2)cc1 (stereo partly drawn) [Example AG7, 3-[5-({4-[(4′-{[{2-[(4R)-4-(4-Methoxyphenyl)-2,2-dimethyltetrahydro-2H-pyran-4-yl]ethyl}(3,3,3-trifluoro-2,2-dimethylpropyl)amino]methyl}-2,3,4,5-tetrahydro[biphenyl]-4-yl)methyl]piperazin-1-yl}carbonyl)-1-oxo-1,3-dihydro-2H-isoindol-2-yl]piperidine-2,6-dione]
4 | 4.9 | 82 | COc1ccc([C@]2(CCN(Cc3ccc(OC4CC5(CCN(CC(=O)N6CCc7ccc8c(c7C6)n(C)c(=O)n8C6CCC(=O)NC6=O)CC5)C4)cc3)CC(C)(C)C(F)(F)F)CCOC(C)(C)C2)cc1 (stereo partly drawn) [Example AK10, 3-(8-{[2-(4-{[{2-[(4R)-4-(4-Methoxyphenyl)-2,2-dimethyltetrahydro-2H-pyran-4-yl]ethyl}(3,3,3-trifluoro-2,2-dimethylpropyl)amino]methyl}phenoxy)-7-azaspiro[3.5]nonan-7-yl]acetyl}-1-methyl-2-oxo-1,2,6,7,8,9-hexahydro-3H-imidazo[4,5-h]isoquinolin-3-yl)piperidine-2,6-dione]
5 | 4.1 | 56 | COc1ccc([C@]2(CCN(Cc3ccc(C4=CCC(C(=O)N5CCN(Cc6ccc7c(c6)n(C)c(=O)n7C6CCC(=O)NC6=O)CC5)CC4)c(C)c3)CC(C)(C)C(F)(F)F)CCOC(C)(C)C2)cc1 (stereo partly drawn) [AS7, 3-[5-({4-[(4′-{[{2-[(4R)-4-(4-Methoxyphenyl)-2,2-dimethyltetrahydro-2H-pyran-4-yl]ethyl)(3,3,3-trifluoro-2,2-dimethylpropyl)amino]methyl}-2′-methyl-2,3,4,5-tetrahydro[biphenyl]-4-yl)carbonyl]piperazin-1-yl}methyl)-3-methyl-2-oxo-2,3-dihydro-1H-benzimidazol-1-yl]piperidine-2,6-dione]
6 | 4.1 | 68 | COc1ccc([C@]2(CCN(Cc3ccc(C4=CC[C@H](CN5CCN(C(=O)c6ccc7c(c6)n(C)c(=O)n7[C@H]6CCC(=O)NC6=O)CC5)CC4)cc3)CC(C)(C)C(F)(F)F)CCOC(C)(C)C2)cc1 [AP6, (3S)-3-{5-[(4-{[(4R)-4′-{[{2-[(4R)-4-(4-Methoxyphenyl)-2,2-dimethyltetrahydro-2H-pyran-4-yl]ethyl}(3,3,3-trifluoro-2,2-dimethylpropyl)amino]methyl}-2,3,4,5-tetrahydro[biphenyl]-4-yl]methyl}piperazin-1-yl)carbonyl]-3-methyl-2-oxo-2,3-dihydro-1H-benzimidazol-1-yl}piperidine-2,6-dione]
7 | 2.2 | 23 | COc1ccc([C@]2(CCN(Cc3ccc(C4=CC[C@H](C(=O)N5CCC(Nc6ccc7c(c6)n(C)c(=O)n7C6CCC(=O)NC6=O)CC5)CC4)c(F)c3)CC(C)(C)C(F)(F)F)CCOC(C)(C)C2)cc1 (stereo partly drawn) [BR3, 3-{5-[(1-{[(4R)-2′-Fluoro-4′-{[{2-[(4R)-4-(4-methoxyphenyl)-2,2-dimethyltetrahydro-2H-pyran-4-yl]ethyl)(3,3,3-trifluoro-2,2-dimethylpropyl)amino]methyl}-2,3,4,5-tetrahydro[biphenyl]-4-yl]carbonyl}piperidin-4-yl)amino]-3-methyl-2-oxo-2,3-dihydro-1H-benzimidazol-1-yl}piperidine-2,6-dione]
8 | 17 | 97 | COc1ccc([C@]2(CCN(Cc3ccc(C4=CCC(CN5CCN(C(=O)c6cc7c(cn6)n(C6CCC(=O)NC6=O)c(=O)n7C)CC5)CC4)cc3)CC(C)(C)C(F)(F)F)CCOC(C)(C)C2)cc1 (stereo partly drawn) [BJ6, 3-[6-({4-[(4′-{[{2-[(4R)-4-(4-Methoxyphenyl)-2,2-dimethyltetrahydro-2H-pyran-4-yl]ethyl}(3,3,3-trifluoro-2,2-dimethylpropyl)amino]methyl}-2,3,4,5-tetrahydro[biphenyl]-4-yl)methyl]piperazin-1-yl}carbonyl)-1-methyl-2-oxo-1,2-dihydro-3H-imidazo[4,5-c]pyridin-3-yl]piperidine-2,6-dione]
9 | 9 | 62 | COc1ccc([C@]2(CCN(Cc3ccc(C4=C(F)CC(C(=O)N5CCN(Cc6ccc7c8c6CCCn8c(=O)n7C6CCC(=O)NC6=O)CC5)CC4)cc3)CC(C)(C)C(F)(F)F)CCOC(C)(C)C2)cc1 (stereo partly drawn) [BB7, 3-[7-({4-[(6-Fluoro-4′-{[{2-[(4R)-4-(4-methoxyphenyl)-2,2-dimethyltetrahydro-2H-pyran-4-yl]ethyl)(3,3,3-trifluoro-2,2-dimethylpropyl)amino]methyl}-2,3,4,5-tetrahydro[biphenyl]-4-yl)carbonyl]piperazin-1-yl}methyl)-2-oxo-5,6-dihydro-4H-imidazo[4,5,1-ij]quinolin-1(2H)-yl]piperidine-2,6-dione]
10 | 12 | 92 | COc1ccc([C@]2(CCN(Cc3ccc(OC4CC5(CCN(CC(=O)N6CCn7c(=O)n(C8CCC(=O)NC8=O)c8cccc6c87)CC5)C4)cc3)CC(C)(C)C(F)(F)F)CCOC(C)(C)C2)cc1 (stereo partly drawn) [AN5, 3-[6-{[2-(4-{[{2-[(4R)-4-(4-Methoxyphenyl)-2,2-dimethyltetrahydro-2H-pyran-4-yl]ethyl}(3,3,3-trifluoro-2,2-dimethylpropyl)amino]methyl}phenoxy)-7-azaspiro[3.5]nonan-7-yl]acetyl}-2-oxo-5,6-dihydro-4H-imidazo[1,5,4-de]quinoxalin-1(2H)-yl]piperidine-2,6-dione]
11 | 9.3 | 60 | COc1ccc([C@]2(CCN(Cc3cc(F)c(C4=CCC(C(=O)N5CCN(Cc6ccc7c(c6)n(C)c(=O)n7C6CCC(=O)NC6=O)CC5)CC4)c(F)c3)CC(C)(C)C(F)(F)F)CCOC(C)(C)C2)cc1 (stereo partly drawn) [AU4, 3-[5-({4-[(2′,6′-Difluoro-4′-{[{2-[(4R)-4-(4-methoxyphenyl)-2,2-dimethyltetrahydro-2H-pyran-4-yl]ethyl)(3,3,3-trifluoro-2,2-dimethylpropyl)amino]methyl}-2,3,4,5-tetrahydro[biphenyl]-4-yl)carbonyl]piperazin-1-yl}methyl)-3-methyl-2-oxo-2,3-dihydro-1H-benzimidazol-1-yl]piperidine-2,6-dione]
12 | 7.3 | 71 | COc1ccc([C@]2(CCN(Cc3ccc(C4=CCC(C(=O)N[C@H]5C[C@H](Nc6ccc7c(c6)n(C)c(=O)n7C6CCC(=O)NC6=O)C5)CC4)cc3)CC(C)(C)C(F)(F)F)CCOC(C)(C)C2)cc1 (stereo partly drawn) [AY8, N-(Trans-3-{[1-(2,6-dioxopiperidin-3-yl)-3-methyl-2-oxo-2,3-dihydro-1H-benzimidazol-5-yl]amino}cyclobutyl)-4′-{[{2-[(4R)-4-(4-methoxyphenyl)-2,2-dimethyltetrahydro-2H-pyran-4-yl]ethyl}(3,3,3-trifluoro-2,2-dimethylpropyl)amino]methyl}-2,3,4,5-tetrahydro[biphenyl]-4-carboxamide]
